# Reference: patent publication US20080125424A1, “Derivatives of urea and related diamines, methods for their manufacture, and uses therefor” (priority 2006, published 2008)
# Biological target: T1, human parathyroid cell Ca2+ receptor (hPCaR) (Homo sapiens, UniProt P41180)
# T1 construct: expressed in transfected cells
# T1 sequence (P41180 20-1078): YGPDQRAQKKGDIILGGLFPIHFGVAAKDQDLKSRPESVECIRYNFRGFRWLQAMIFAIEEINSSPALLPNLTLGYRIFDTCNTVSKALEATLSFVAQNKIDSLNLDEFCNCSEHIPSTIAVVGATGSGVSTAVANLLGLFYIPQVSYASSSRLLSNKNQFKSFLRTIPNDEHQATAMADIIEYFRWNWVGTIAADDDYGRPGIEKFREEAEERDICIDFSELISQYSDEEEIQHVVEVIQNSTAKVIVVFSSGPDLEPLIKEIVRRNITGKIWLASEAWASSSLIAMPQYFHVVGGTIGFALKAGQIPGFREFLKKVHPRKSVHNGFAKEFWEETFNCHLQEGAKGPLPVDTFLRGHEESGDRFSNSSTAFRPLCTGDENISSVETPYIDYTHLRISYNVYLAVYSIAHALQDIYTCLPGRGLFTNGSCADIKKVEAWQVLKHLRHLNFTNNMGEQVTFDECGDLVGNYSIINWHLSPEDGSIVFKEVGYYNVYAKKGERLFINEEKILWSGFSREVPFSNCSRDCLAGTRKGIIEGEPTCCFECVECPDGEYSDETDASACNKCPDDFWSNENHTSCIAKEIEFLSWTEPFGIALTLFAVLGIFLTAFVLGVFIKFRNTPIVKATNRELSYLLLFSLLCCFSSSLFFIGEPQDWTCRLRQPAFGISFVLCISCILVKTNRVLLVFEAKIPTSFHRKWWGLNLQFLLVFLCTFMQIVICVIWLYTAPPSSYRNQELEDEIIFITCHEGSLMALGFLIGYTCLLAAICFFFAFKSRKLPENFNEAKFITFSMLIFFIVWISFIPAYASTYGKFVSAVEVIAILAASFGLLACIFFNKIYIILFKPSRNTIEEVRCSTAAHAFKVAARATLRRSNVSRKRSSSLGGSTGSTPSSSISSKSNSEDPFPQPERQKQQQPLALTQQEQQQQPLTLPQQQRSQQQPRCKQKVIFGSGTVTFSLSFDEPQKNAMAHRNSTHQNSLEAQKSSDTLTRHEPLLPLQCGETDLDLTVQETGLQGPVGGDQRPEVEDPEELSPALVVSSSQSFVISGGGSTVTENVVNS
# Assay: [Ca2+]i fluorescence assay in HEK 293 4.0-7 cells expressing hPCaR
# Format: cell-based
# Conditions: buffer with 1 mM CaCl2
# Method: The activities of the compounds of the present invention on calcium receptors were measured. In one embodiment, the measurement was performed in accordance with the method described in Example 4 of Nemeth et al., PCT/US95/13704 (International Publication No. WO96/12697) herein incorporated by reference.
# A 4.0-kb NotI-HindIII fragment of the human parathyroid cell Ca^2+ receptor (hPCaR) cDNA was subcloned into the mammalian expression vector pCEP4 (Invitrogen) containing the hygromycin-resistant gene as a selectable marker. This plasmid was transfected into HEK 293 cells by calcium phosphate precipitation. Transfected cells were grown in Dulbecco's modified Eagle's medium containing 10% fetal bovine serum and hygromycin (200 μg/mL). Hygromycin-resistant colonies were subcloned and assayed for hPCaR mRNA by solution hybridization using a ^32P-labeled RNA probe complementary to the (4.0 kb) hPCaR sequence (Garrett, et al., J. Biol. Chem. 270, 12919-12925 (1995)). Clone 7 was used to assess the effects of compounds on [Ca^2+]i. This stably transfected cell line was termed HEK 293 4.0-7. For measurements of [Ca^2+]i, the cells were recovered from tissue culture flasks by brief treatment with Versene (Invitrogen; Containing 0.2 g/L EDTA.4Na in phosphate-buffered saline) and then seeded in collagen coated 384-well plates (BD Biosciences) at 20K cells per well in the growth media (same as above). Cells were grown in 37c TC incubator overnight. Then, the media was discarded and cells were loaded with 1× dye from Ca^2+ Assay Kit I (BD Biosciences) in parathyroid cell buffer (126 mM NaCl, 4 mM KCl, 1 mM MgSO4, 0.7 mM K2HPO4/KH2PO4, 20 mM HEPES.NaOH (pH 7.45)) containing 0.5% BSA and 1 mM CaCl2. Cells were loaded at room temperature for 90 minutes. Each test compound was added to the cells and the fluorescence was recorded by using excitation and emission wavelengths of 485 and 530 nm, respectively.
row,EC50,SMILES
1,100 to 1000 nM,"CS(=O)(=O)Nc1ccc(-c2nc(NC(=O)NCCC(c3ccccc3)c3ccccc3)sc2Cl)cc1 [Example 176, 1-(5-chloro-4-(4-(methylsulfonamido)phenyl)thiazol-2-yl)-3-(3,3-diphenylpropyl)urea]"
2,1000 to 5000 nM,"C[C@@H]1CNCCN1C(=O)CCN(CCC(c1ccccc1)c1ccccc1)C(=O)Nc1nc2ccccc2s1 [Example 120, (R)-3-(benzo[d]thiazol-2-yl)-1-(3,3-diphenylpropyl)-1-(3-(2-methylpiperazin-1-yl)-3-oxopropyl)urea]"
3,< 100 nM,"O=C(CCCN(CCC(c1ccccc1)c1ccccc1)C(=O)Nc1nc2ccccc2s1)N1CCNCC1 [Example 82, 3-(benzo[d]thiazol-2-yl)-1-(3,3-diphenylpropyl)-1-(4-oxo-4-(piperazin-1-yl)butyl)urea]"
4,< 100 nM,"CS(=O)(=O)NCCN(CCC(c1ccccc1)c1ccccc1)C(=O)Nc1nc(-c2ccc(NS(C)(=O)=O)cc2)c(Cl)s1 [Example 139, 3-(5-chloro-4-(4-(methylsulfonamido)phenyl)thiazol-2-yl)-1-(3,3-diphenylpropyl)-1-(2-(methylsulfonamido)ethyl)urea]"
5,< 100 nM,"CS(=O)(=O)Nc1ccc(-c2nc(NC(=O)N(CCCO)CCC(c3ccccc3)c3ccccc3)sc2Cl)cc1 [Example 134, 3-(5-chloro-4-(4-(methylsulfonamido)phenyl)thiazol-2-yl)-1-(3,3-diphenylpropyl)-1-(3-hydroxypropyl)urea]"
6,100 to 1000 nM,"CN1CCN(C(=O)CCCN(CCC(c2ccccc2)c2ccccc2)C(=O)Nc2nc3ccccc3s2)CC1 [Example 108, 3-(benzo[d]thiazol-2-yl)-1-(3,3-diphenylpropyl)-1-(4-(4-methylpiperazin-1-yl)-4-oxobutyl)urea]"
7,100 to 1000 nM,"CC(C)(C)OC(=O)NCCN(CCC(c1ccccc1)c1ccccc1)C(=O)Nc1nc2ccccc2s1 [Example 148, {2-[3-Benzothiazol-2-yl-1-(3,3-diphenyl-propyl)-ureido]-ethyl}-carbamic acid tert-butyl ester]"
8,100 to 1000 nM,"O=C(CCN(CCC(c1ccccc1)c1ccccc1)C(=O)Nc1nc2ccccc2s1)NC1CCCCC1 [Example 112, 3-(benzo[d]thiazol-2-yl)-1-(3-(cyclohexylamino)-3-oxopropyl)-1-(3,3-diphenylpropyl)urea]"
9,1000 to 5000 nM,"C[C@H]1CNCCN1C(=O)CCN(CCC(c1ccccc1)c1ccccc1)C(=O)Nc1nc2ccccc2s1 [Example 123, (S)-3-(benzo[d]thiazol-2-yl)-1-(3,3-diphenylpropyl)-1-(3-(2-methylpiperazin-1-yl)-3-oxopropyl)urea]"
10,100 to 1000 nM,"CC(C)(C)OC(=O)CCCN(CCC(c1ccccc1)c1ccccc1)C(=O)Nc1nc2ccccc2s1 [Example 101, tert-butyl 4-(3-(benzo[d]thiazol-2-yl)-1-(3,3-diphenylpropyl)ureido)butanoate]"
11,100 to 1000 nM,"O=C(Nc1nc2ccccc2s1)N(CCO)CCC(c1ccccc1)c1ccccc1 [Example 175, 3-Benzothiazol-2-yl-1-(3,3-diphenylpropyl)-1-(2-hydroxy-ethyl)-urea]"
12,100 to 1000 nM,"O=C(Nc1nc2ccccc2s1)N(CCNCC1CCN(C(=O)OCc2ccccc2)CC1)CCC(c1ccccc1)c1ccccc1 [Example 149, 4-({2-[3-Benzothiazol-2-yl-1-(3,3-diphenyl-propyl)-ureido]-ethylamino}-methyl)piperidine-1-carboxylic acid benzyl ester]"
13,< 100 nM,"CS(=O)(=O)Nc1ccc(-c2nc(NC(=O)N(CCOC(N)=O)CCC(c3ccccc3)c3ccccc3)sc2Cl)cc1 [Example 132, 2-(3-(5-chloro-4-(4-(methylsulfonamido)phenyl)thiazol-2-yl)-1-(3,3-diphenylpropyl)ureido)ethyl carbamate]"
14,< 100 nM,"CS(=O)(=O)Nc1ccc(-c2nc(NC(=O)N(CCO)CCC(c3ccccc3)c3ccccc3)sc2Cl)cc1 [Example 133, 3-(5-chloro-4-(4-(methylsulfonamido)phenyl)thiazol-2-yl)-1-(3,3-diphenylpropyl)-1-(2-hydroxyethyl)urea]"
15,100 to 1000 nM,"O=C(CCN(CCC(c1ccccc1)c1ccccc1)C(=O)Nc1nc2ccccc2s1)N1CCOCC1 [Example 103, 3-(benzo[d]thiazol-2-yl)-1-(3,3-diphenylpropyl)-1-(3-morpholino-3-oxopropyl)urea]"
16,100 to 1000 nM,"CC(C)(C)OC(=O)N1CCN(C(=O)CCCN(CCC(c2ccccc2)c2ccccc2)C(=O)Nc2nc3ccccc3s2)CC1 [Example 95, tert-butyl 4-(4-(3-(benzo[d]thiazol-2-yl)-1-(3,3-diphenylpropyl)ureido)butanoyl)piperazine-1-carboxylate]"
17,< 100 nM,"CSCCN(CCC(c1ccccc1)c1ccccc1)C(=O)Nc1nc(-c2ccc(NS(C)(=O)=O)cc2)c(Cl)s1 [Example 137, 3-(5-chloro-4-(4-(methylsulfonamido)phenyl)thiazol-2-yl)-1-(3,3-diphenylpropyl)-1-(2-(methylthio)ethyl)urea]"
18,< 100 nM,"CC1OCCC1NCCN(CCC(c1ccccc1)c1ccccc1)C(=O)Nc1nc2ccccc2s1 (stereo not shown) [Example 157, 3-Benzothiazol-2-yl-1-(3,3-diphenyl-propyl)-1-[2-(2-methyl-tetrahydro-furan-3-ylamino)-ethyl]-urea]"
19,1000 to 5000 nM,"O=C(Nc1nc2ccccc2s1)N(CCNC1CCSCC1)CCC(c1ccccc1)c1ccccc1 [Example 155, 3-Benzothiazol-2-yl-1-(3,3-diphenyl-propyl)-1-[2-(tetrahydro-thiopyran-4-ylamino)ethyl]-urea]"
20,< 100 nM,"O=C(NCCN(CCC(c1ccccc1)c1ccccc1)C(=O)Nc1nc2ccccc2s1)C1CCCNC1 (stereo not shown) [Example 129, 3-(benzo[d]thiazol-2-yl)-1-(3,3-diphenylpropyl)-1-(2-(piperidine-3-carboxamido)ethyl)urea]"
21,< 100 nM,"CS(=O)(=O)Nc1ccc(-c2nc(NC(=O)N(CCNC(=O)C3CCCNC3)CCC(c3ccccc3)c3ccccc3)sc2Cl)cc1 (stereo not shown) [Example 131, 3-(5-chloro-4-(4-(methylsulfonamido)phenyl)thiazol-2-yl)-1-(3,3-diphenylpropyl)-1-(2-(piperidine-3-carboxamido)ethyl)urea]"
22,100 to 1000 nM,"C[C@@H]1CNCCN1C(=O)CCCN(CCC(c1ccccc1)c1ccccc1)C(=O)Nc1nc(-c2ccccc2)cs1 [Example 91, (R)-1-(3,3-diphenylpropyl)-1-(4-(2-methylpiperazin-1-yl)-4-oxobutyl)-3-(4-phenylthiazol-2-yl)urea]"
23,100 to 1000 nM,"CN(CCN(CCC(c1ccccc1)c1ccccc1)C(=O)Nc1nc(-c2ccccc2)cs1)C1CCCCC1 [Example 164, 1-[2-(Cyclohexyl-methyl-amino)-ethyl]-1-(3,3-diphenyl-propyl)-3-(4-phenyl-thiazol-2-yl)-urea]"
24,< 100 nM,"NC(=O)CCCN(CCC(c1ccccc1)c1ccccc1)C(=O)Nc1nc2ccccc2s1 [Example 80, 1-(4-amino-4-oxobutyl)-3-(benzo[d]thiazol-2-yl)-1-(3,3-diphenylpropyl)urea]"
25,< 100 nM,"O=C1CC[C@@H](NCCN(CCC(c2ccccc2)c2ccccc2)C(=O)Nc2nc(-c3ccccc3)c(Cl)s2)CN1 [Example 147, (R)-3-(5-chloro-4-phenylthiazol-2-yl)-1-(3,3-diphenylpropyl)-1-(2-(6-oxopiperidin-3-ylamino)ethyl)urea]"
